Laboratory results from patent US12448389B2, “BRM targeting compounds and associated methods of use” (Prelude Therapeutics Incorporated, priority 2020, dated 2025).

Experiments:
SMARCA4-HiBiT = target: T1, SMARCA4-HiBiT (Homo sapiens, UniProt P51532); experiment: SMARCA4 HiBiT degradation assay in HeLa cells; assay type: cell-based; settings: 18 hours incubation; for DC50: read-out: HeLa-HiBit-SM4 DC50; for Dmax: HeLa, read-out: HeLa-HiBit-SM4 Dmax (%)
T1 construct: SMARCA4-HiBiT knock-in Hela monoclonal cell (CS3023226); host or cells: HeLa monoclonal knock-in line (CRISPR HiBiT knock-in at the endogenous locus, heterozygous)
T1 sequence (P51532 whole entry): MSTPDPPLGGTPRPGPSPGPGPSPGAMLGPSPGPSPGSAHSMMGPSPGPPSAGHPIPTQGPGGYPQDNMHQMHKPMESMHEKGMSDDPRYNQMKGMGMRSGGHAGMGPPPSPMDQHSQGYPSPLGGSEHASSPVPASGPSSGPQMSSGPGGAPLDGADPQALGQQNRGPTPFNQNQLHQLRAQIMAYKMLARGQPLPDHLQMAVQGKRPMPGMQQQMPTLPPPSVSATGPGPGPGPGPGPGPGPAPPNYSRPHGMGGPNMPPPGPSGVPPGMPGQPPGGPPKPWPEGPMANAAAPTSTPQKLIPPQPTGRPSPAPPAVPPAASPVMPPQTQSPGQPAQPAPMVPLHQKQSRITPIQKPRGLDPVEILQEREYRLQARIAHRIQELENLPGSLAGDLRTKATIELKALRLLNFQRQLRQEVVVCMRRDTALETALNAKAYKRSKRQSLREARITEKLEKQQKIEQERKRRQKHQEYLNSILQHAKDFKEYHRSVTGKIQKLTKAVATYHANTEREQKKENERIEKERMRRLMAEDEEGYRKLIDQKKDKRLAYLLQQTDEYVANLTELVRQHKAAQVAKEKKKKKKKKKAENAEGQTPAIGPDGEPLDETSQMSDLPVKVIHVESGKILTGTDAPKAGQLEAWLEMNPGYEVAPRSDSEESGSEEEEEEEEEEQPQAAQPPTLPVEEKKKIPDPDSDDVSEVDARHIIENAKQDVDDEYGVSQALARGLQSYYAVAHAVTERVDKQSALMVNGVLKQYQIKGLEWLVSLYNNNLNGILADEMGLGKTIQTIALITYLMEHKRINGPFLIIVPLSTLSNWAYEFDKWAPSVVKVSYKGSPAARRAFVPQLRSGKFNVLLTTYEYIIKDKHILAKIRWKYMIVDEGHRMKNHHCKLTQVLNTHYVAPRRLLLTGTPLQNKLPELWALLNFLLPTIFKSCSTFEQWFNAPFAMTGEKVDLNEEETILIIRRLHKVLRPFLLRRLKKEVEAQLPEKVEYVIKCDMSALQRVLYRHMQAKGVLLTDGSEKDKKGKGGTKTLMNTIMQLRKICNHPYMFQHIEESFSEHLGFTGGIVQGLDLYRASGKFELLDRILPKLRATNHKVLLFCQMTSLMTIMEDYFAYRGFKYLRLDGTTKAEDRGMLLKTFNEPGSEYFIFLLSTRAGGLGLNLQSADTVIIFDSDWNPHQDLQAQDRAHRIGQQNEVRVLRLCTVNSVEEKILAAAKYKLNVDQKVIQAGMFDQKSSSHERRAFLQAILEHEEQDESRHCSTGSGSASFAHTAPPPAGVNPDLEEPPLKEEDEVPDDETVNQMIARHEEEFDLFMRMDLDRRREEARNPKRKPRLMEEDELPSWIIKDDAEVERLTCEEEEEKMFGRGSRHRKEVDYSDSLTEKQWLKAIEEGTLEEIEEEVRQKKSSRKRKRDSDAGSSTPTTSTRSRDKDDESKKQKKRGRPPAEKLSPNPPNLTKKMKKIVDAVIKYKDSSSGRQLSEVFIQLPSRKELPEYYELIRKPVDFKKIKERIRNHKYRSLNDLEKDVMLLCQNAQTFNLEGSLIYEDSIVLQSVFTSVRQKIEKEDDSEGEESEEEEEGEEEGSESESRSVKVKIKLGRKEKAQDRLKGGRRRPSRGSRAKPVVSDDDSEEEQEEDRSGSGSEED
How it was run: (§1)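 HeLa monoclonal lines with heterozygous HiBiT knock-in were seeded at 2500 cells/well in EMEM with 10% FBS and treated with compound for 18 h at 37 °C. Remaining tagged protein was measured by Nano-Glo HiBiT lytic luminescence after 30–60 min at RT, and values came from curve fitting.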

SMARCA2-HiBiT = target: T2, SMARCA2-HiBiT (Homo sapiens, UniProt P51531); experiment: SMARCA2 HiBiT degradation assay in HeLa cells; assay type: cell-based; settings: 18 hours incubation; for DC50: read-out: HeLa_HiBit-SM2 DC50; for Dmax: HeLa, read-out: HeLa-HiBit-SM2 Dmax (%)
T2 construct: SMARCA2-HiBiT knock-in Hela monoclonal cell (CS302366); host or cells: HeLa monoclonal knock-in line (CRISPR HiBiT knock-in at the endogenous locus, heterozygous)
T2 sequence (P51531 whole entry): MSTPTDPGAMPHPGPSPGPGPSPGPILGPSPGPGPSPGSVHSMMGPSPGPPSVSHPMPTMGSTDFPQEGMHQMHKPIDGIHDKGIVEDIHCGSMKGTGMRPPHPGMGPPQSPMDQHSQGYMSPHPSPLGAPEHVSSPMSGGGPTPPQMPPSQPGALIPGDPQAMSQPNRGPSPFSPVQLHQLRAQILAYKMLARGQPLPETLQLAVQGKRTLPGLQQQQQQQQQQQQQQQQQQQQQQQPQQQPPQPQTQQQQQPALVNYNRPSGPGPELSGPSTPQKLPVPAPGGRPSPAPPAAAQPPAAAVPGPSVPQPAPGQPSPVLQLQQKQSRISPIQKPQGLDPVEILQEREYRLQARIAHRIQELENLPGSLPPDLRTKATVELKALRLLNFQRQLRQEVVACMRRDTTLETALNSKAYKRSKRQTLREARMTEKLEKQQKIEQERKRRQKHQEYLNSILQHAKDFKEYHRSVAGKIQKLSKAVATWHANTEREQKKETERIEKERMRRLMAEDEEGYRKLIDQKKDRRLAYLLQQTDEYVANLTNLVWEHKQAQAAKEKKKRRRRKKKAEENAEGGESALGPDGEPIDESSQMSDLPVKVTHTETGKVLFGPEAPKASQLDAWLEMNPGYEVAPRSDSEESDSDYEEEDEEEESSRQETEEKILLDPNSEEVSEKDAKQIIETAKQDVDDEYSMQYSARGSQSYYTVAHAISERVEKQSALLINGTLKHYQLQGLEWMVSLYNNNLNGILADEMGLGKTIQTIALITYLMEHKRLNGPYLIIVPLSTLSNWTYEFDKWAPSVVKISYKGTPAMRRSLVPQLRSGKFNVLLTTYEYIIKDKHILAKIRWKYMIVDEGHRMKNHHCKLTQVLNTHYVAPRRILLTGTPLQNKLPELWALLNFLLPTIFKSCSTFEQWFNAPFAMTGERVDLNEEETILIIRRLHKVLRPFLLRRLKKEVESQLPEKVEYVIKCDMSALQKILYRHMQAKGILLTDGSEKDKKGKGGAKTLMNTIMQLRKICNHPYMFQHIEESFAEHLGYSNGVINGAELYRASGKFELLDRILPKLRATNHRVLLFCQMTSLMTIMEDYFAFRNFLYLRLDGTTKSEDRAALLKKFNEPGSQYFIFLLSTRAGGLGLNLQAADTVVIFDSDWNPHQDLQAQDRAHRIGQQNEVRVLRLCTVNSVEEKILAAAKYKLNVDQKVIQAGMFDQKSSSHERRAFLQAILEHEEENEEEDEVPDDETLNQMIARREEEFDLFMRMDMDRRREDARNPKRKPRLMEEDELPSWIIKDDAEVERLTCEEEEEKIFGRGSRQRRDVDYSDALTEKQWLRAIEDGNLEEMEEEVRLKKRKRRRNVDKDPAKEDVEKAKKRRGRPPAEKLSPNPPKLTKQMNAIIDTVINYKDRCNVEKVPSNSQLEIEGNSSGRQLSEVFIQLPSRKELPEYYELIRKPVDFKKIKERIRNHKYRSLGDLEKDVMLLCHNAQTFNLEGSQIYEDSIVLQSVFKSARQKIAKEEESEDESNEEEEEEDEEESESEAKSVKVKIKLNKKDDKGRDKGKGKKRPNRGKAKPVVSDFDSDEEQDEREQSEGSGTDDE
How it was run: as §1

| DC50 (SMARCA4-HiBiT) [nM] | Dmax (SMARCA4-HiBiT) [%] | DC50 (SMARCA2-HiBiT) [nM] | Dmax (SMARCA2-HiBiT) [%] | HeLa-HiBit-SM4 Dmax (%) (SMARCA4-HiBiT) | SMILES |
| --- | --- | --- | --- | --- | --- |
| < 10 | 50 to 75 | < 10 | 50 to 75 |  | O=C1CCC(N2C(=O)c3ccc(N4CCC(CCN5C[C@@H]6[C@H](C5)[C@H]6CN5CCN6c7cc(-c8ccccc8O)nnc7NC[C@H]6C5)CC4)cc3C2=O)C(=O)N1 (stereo partly drawn) [Example 152, 2-(2,6-dioxopiperidin-3-yl)-5-(4-(2-((1R,5S,6r)-6-(((S)-2-(2-hydroxyphenyl)-5,6,6a,7,9,10-hexahydro-8H-pyrazino[1′,2′:4,5]pyrazino[2,3-c]pyridazin-8-yl)methyl)-3-azabicyclo[3.1.0]hexan-3-yl)ethyl)piperidin-1-yl)isoindoline-1,3-dione] |
| < 10 | 50 to 75 | < 10 | 50 to 75 |  | CN(CCCN1CCN2c3cc(-c4ccccc4O)nnc3NC[C@H]2C1)CC1CCN(c2ccc3c(c2)C(=O)N(C2CCC(=O)NC2=O)C3=O)CC1 (stereo partly drawn) [Example 40, 2-(2,6-dioxopiperidin-3-yl)-5-(4-(((3-((S)-2-(2-hydroxyphenyl)-5,6,6a,7,9,10-hexahydro-8H-pyrazino[1′,2′:4,5]pyrazino[2,3-c]pyridazin-8-yl)propyl)(methyl)amino)methyl)piperidin-1-yl)isoindoline-1,3-dione] |
| < 10 | 75 to 85 | < 10 | > 85 |  | CC1CN(CC2CCN(c3ccc4c(c3)C(=O)N(C3CCC(=O)NC3=O)C4)CC2)CCC1C(=O)N1CCN2c3cc(-c4ccccc4O)nnc3NC[C@H]2C1 (stereo partly drawn) [Example 264, 3-(6-(4-((4-((S)-2-(2-hydroxyphenyl)-6,6a,7,8,9,10-hexahydro-5H-pyrazino[1′,2′:4,5]pyrazino[2,3-c]pyridazine-8-carbonyl)-3-methylpiperidin-1-yl)methyl)piperidin-1-yl)-1-oxoisoindolin-2-yl)piperidine-2,6-dione] |
| 10 to 100 | 75 to 85 | < 10 | 75 to 85 |  | O=C1CCC(N2Cc3ccc(N4CCC(CN5CCN(C(=O)N6CCN7c8cc(-c9ccccc9O)nnc8NC[C@H]7C6)C(C(F)(F)F)C5)CC4)cc3C2=O)C(=O)N1 (stereo partly drawn) [Example 100, 3-(6-(4-((4-((S)-2-(2-hydroxyphenyl)-6,6a,7,8,9,10-hexahydro-5H-pyrazino[1′,2′:4,5]pyrazino[2,3-c]pyridazine-8-carbonyl)-3-(trifluoromethyl)piperazin-1-yl)methyl)piperidin-1-yl)-1-oxoisoindolin-2-yl)piperidine-2,6-dione] |
| < 10 | > 85 | < 10 | > 85 |  | O=C1CCC(N2C(=O)c3cccc(NCCCN4CCC(N5CCN6c7cc(-c8ccccc8O)nnc7NC[C@H]6C5)CC4)c3C2=O)C(=O)N1 (stereo partly drawn) [Example 70, 2-(2,6-dioxopiperidin-3-yl)-4-((3-(4-((S)-2-(2-hydroxyphenyl)-5,6,6a,7,9,10-hexahydro-8H-pyrazino[1′,2′:4,5]pyrazino[2,3-c]pyridazin-8-yl)piperidin-1-yl)propyl)amino)isoindoline-1,3-dione] |
| < 10 | > 85 | < 10 | > 85 |  | O=C1CCC(n2ccc3cc(N4CCC(CN5CCC(N6CCN7c8cc(-c9ccccc9O)nnc8NC[C@H]7C6)CC5)CC4)ccc3c2=O)C(=O)N1 (stereo partly drawn) [Example 26, 3-(6-(4-((4-((S)-2-(2-hydroxyphenyl)-5,6,6a,7,9,10-hexahydro-8H-pyrazino [1′,2′:4,5]pyrazino[2,3-c]pyridazin-8-yl)piperidin-1-yl)methyl)piperidin-1-yl)-1-oxoisoquinolin-2(1H)-yl)piperidine-2,6-dione] |
| 100 to 1000 | ≤ 50 | 10 to 100 | 75 to 85 |  | O=C1CCC(N2Cc3cc(OCCN4CCCC(CN5CCN6c7cc(-c8ccccc8O)nnc7NC[C@H]6C5)C4)ccc3C2=O)C(=O)N1 (stereo partly drawn) [Example 255, 3-(5-(2-(3-(((S)-2-(2-hydroxyphenyl)-5,6,6a,7,9,10-hexahydro-8H-pyrazino[1′,2′:4,5]pyrazino[2,3-c]pyridazin-8-yl)methyl)piperidin-1-yl)ethoxy)-1-oxoisoindolin-2-yl)piperidine-2,6-dione] |
| < 10 | > 85 | < 10 | > 85 |  | O=C1CCC(N2C(=O)c3ccc(N4CCC(CN5CCC(CN6CCN7c8cc(-c9ccccc9O)nnc8NC[C@H]7C6)CC5)C4)cc3C2=O)C(=O)N1 (stereo partly drawn) [Example 225, 2-(2,6-dioxopiperidin-3-yl)-5-(3-((4-(((S)-2-(2-hydroxyphenyl)-5,6,6a,7,9,10-hexahydro-8H-pyrazino[1′,2′:4,5]pyrazino[2,3-c]pyridazin-8-yl)methyl)piperidin-1-yl)methyl)pyrrolidin-1-yl)isoindoline-1,3-dione] |
| < 10 | > 85 | < 10 | > 85 |  | O=C1CCC(N2C(=O)c3ccc(N4CCC5(CC4)CC(N4C[C@@H]6[C@@H](CN7CCN8c9cc(-c%10ccccc%10O)nnc9NC[C@H]8C7)[C@@H]6C4)C5)cc3C2=O)C(=O)N1 (stereo partly drawn) [Example 93, 2-(2,6-dioxopiperidin-3-yl)-5-(2-((1R,5S,6s)-6-(((S)-2-(2-hydroxyphenyl)-5,6,6a,7,9,10-hexahydro-8H-pyrazino[1′,2′:4,5]pyrazino[2,3-c]pyridazin-8-yl)methyl)-3-azabicyclo[3.1.0]hexan-3-yl)-7-azaspiro[3.5]nonan-7-yl)isoindoline-1,3-dione] |
| < 10 | 75 to 85 | < 10 | > 85 |  | O=C1CCC(N2Cc3cc(OCCN4CCC(N5CCN6c7cc(-c8ccccc8O)nnc7NC[C@H]6C5)CC4)ccc3C2=O)C(=O)N1 (stereo partly shown) [Example 238] |
| < 10 |  | < 10 | 75 to 85 | C (C=50%<Dmax<=75%) | O=C1CCC(N2C(=O)c3ccc(N4CC[C@@H](CN5C[C@@H]6[C@H](C5)[C@H]6CN5CCN6c7cc(-c8ccccc8O)nnc7NC[C@H]6C5)[C@H](F)C4)cc3C2=O)C(=O)N1 (stereo partly drawn) [Example 200, 2-(2,6-dioxopiperidin-3-yl)-5-[(3S,4S)-3-fluoro-4-[[(1S,5R)-6-[[(10S)-4-(2-hydroxyphenyl)-1,5,6,8,12-pentazatricyclo [8.4.0.02,7]tetradeca-2(7),3,5-trien-12-yl]methyl]-3-azabicyclo[3.1.0]hexan-3-yl]methyl]piperidin-1-yl]isoindole-1,3-dione] |
| < 10 | 50 to 75 | < 10 | 75 to 85 |  | O=C1CCC(N2C(=O)c3cccc(N4CCC(CCCN5CCC(N6CCN7c8cc(-c9ccccc9O)nnc8NC[C@H]7C6)C(F)C5)CC4)c3C2=O)C(=O)N1 (stereo partly drawn) [Example 73, 2-(2,6-dioxopiperidin-3-yl)-4-(4-(3-(3-fluoro-4-((S)-2-(2-hydroxyphenyl)-5,6,6a,7,9,10-hexahydro-8H-pyrazino[1′,2′:4,5]pyrazino[2,3-c]pyridazin-8-yl)piperidin-1-yl)propyl)piperidin-1-yl)isoindoline-1,3-] |
| < 10 | > 85 | < 10 | > 85 |  | O=C1CCC(N2Cc3ccc(N4CCC(CN5CCC(F)(CN6CCN7c8cc(-c9ccccc9O)nnc8NC[C@H]7C6)CC5)CC4)cc3C2=O)C(=O)N1 (stereo partly drawn) [Example 233, 3-(6-(4-((4-fluoro-4-(((S)-2-(2-hydroxyphenyl)-5,6,6a,7,9,10-hexahydro-8H-pyrazino[1′,2′:4,5]pyrazino[2,3-c]pyridazin-8-yl)methyl)piperidin-1-yl)methyl)piperidin-1-yl)-1-oxoisoindolin-2-yl)piperidine-2,6-dione] |
